The METLIN SMRT retention time set (Domingo-Almenara et al. 2019)

Assay: gradient 5% acetonitrile 3 min, to 50% in 2 min, to 85% in 15 min, held 3 min, 100 µL/min
Conditions: column: Zorbax Extend-C18 2.1 x 50 mm; eluents: water / acetonitrile, 0.1% formic acid
How it was run: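 Each retention time is based on an adduct peak selected computationally and verified by manual inspection. Measurements used HPLC–quadrupole time-of-flight mass spectrometry in positive and negative ionization mode on mixtures of ~100 pure standards. Chromatography ran on a Zorbax Extend-C18 column (2.1 × 50 mm, 1.8 μm) at 100 μL/min with water and acetonitrile, each containing 0.1% formic acid, and dead and dwell volumes of 40 μL and 900 μL.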

SMILES | RP-LC retention time [s]
O=C(NCCc1cccs1)c1c(O)c2cccnc2n(-c2cccc(F)c2)c1=O | 1180
COc1ccc(CCNC(=O)Nc2nnc(-c3ccc(F)cc3F)o2)cc1 | 788
CN(C)C1(CC2CC2)CCN(C(=O)c2cccs2)CC1 | 584
CCOC(=O)CCC(=O)NCC1CN(c2ccc(Cl)c(Cl)c2)C(=O)O1 (stereo not given) | 774
COc1ccc(-c2nnc(COc3ccc(NC(=O)c4cncc(Br)c4)cc3)o2)cc1 | 893
CC1=C(c2ccc(C)c(C)c2)S(=O)(=O)N=C1N1CCCN(C(=O)c2ccco2)CC1 | 836
Cc1sc2ccn(CC(C)C)c(=O)c2c1C(=O)NC(C)c1ccc(F)cc1 (stereo not given) | 1030
CN(CC1CCOC1)C(=O)NCc1cccc(F)c1 (stereo not given) | 675
Cc1ccc(-c2csc(NC(=O)COc3ccc(C)cc3Br)n2)cc1 | 1290
Fc1ccccc1CN1CCc2nc(N3CCOCC3)ncc2C1 | 590
OC[C@@H]1CN(Cc2ccco2)C[C@H]1c1nc(-c2cccnc2)no1 | 557
CCN1CCN(CCCNC(=O)Cn2c3ccccc3c3cnn(C)c(=O)c32)CC1 | 560
Cc1cnc(C2CCOCC2)n1C1CCN(C(=O)NC2CCCCC2)CC1 | 611
CCOC(=O)C1CCN(C(=O)c2cn(-c3cc(N4CCC(C)CC4)ncn3)cn2)CC1 | 941
O=C(O)c1cn(-c2ccc3c(c2)OCO3)nn1 | 645
O=C(NCC1(c2cccs2)CCOCC1)C(=O)NC1CCCC1 | 775
O=S(=O)(c1cccnc1)N1CCN(c2ccc(-c3cccs3)nn2)CC1 | 692
O=C(NC1CC1)c1cc2cc(Br)ccc2[nH]1 | 817
O=C(Cn1ncc2c(N3CCN(c4ccccn4)CC3)ncnc21)Nc1cccc(F)c1 | 563

SMILES | RP-LC retention time [s]
CCN1c2ccc(C)cc2C(=O)NC12CCN(C(=O)c1cc(OC)cc(OC)c1)CC2 | 828
Cc1nc(N2CCOCC2)c2c(C(=O)Nc3ccc(Br)cc3F)c(C)oc2n1 | 976
O=C(NCc1ccco1)c1cccc(Nc2c(-c3ccc(Cl)cc3)nc3cnccn23)c1 | 826
Cc1ccc(C)c(NS(=O)(=O)c2cc(-c3[nH]ncc3C(=O)N3CCCC3)oc2C)c1 | 760
CCc1nnc(-c2cc(C)n(CC(=O)Nc3ccc(Cl)cc3C)c2C)o1 | 915
Cc1ccc(Sc2c(-c3ccccc3)nc3ncccn23)cc1 | 1040
Cc1noc(/C=C\c2ccc(S(=O)(=O)N3CCCCC3C)cc2)c1NC(=O)C1CC1 (stereo not given) | 938
CCOC(=O)C1=C(C)NC(=O)NC1c1nc2ccccc2n1CC (stereo not given) | 597
CCc1ccc(C2=NN(CCC(=O)NC(C)c3ccc4c(c3)OCCO4)C(=O)CC2)cc1 (stereo not given) | 832
Cc1cc(C)cc(NC(=O)C2CCCN2S(C)(=O)=O)c1 (stereo not given) | 782
Cc1nn(C)cc1S(=O)(=O)Nc1ccc(C(F)(F)F)cc1 | 753
O=C(NC1CC1)C1CCN(c2nc3ccc(-c4ccsc4)nc3s2)CC1 | 809
Cc1cccc(NC(=O)Cn2cnc3nc(N4CCC(C(=O)NC5CC5)CC4)sc3c2=O)c1 | 658
C=CCSc1nnc(Cc2cc(=O)[nH]c(=O)[nH]2)n1-c1ccc(Cl)cc1 | 624
COc1ccc(-c2nnc(CC(=O)NC3CC3)o2)cc1 | 640
CC(=O)[C@H]1CCC2C3CC[C@H]4C[C@H](O)CC[C@]4(C)C3CC[C@@]21C (stereo not given in full) | 1270
Cc1cn2c(S(=O)(=O)NC3CCCCC3)c(C(C)C)nc2s1 | 999
Cc1ccc(S(=O)(=O)CCc2noc(C(=O)NCCN3CCC(C)CC3)n2)cc1 | 631
Clc1ccccc1Cc1nc(-c2ccc(OC3CCNC3)cc2)no1 (stereo not given) | 704

SMILES | RP-LC retention time [s]
CCOc1ccc(C(O)CN2CCN(c3ccccn3)CC2)cc1Cl (stereo not given) | 591
COc1cccc(-c2csc(Cc3nc(-c4cccs4)no3)n2)c1 | 1020
CCOC(=O)c1c(C)oc2nc(C)nc(NC3CCN(Cc4ccccc4)CC3)c12 | 597
Cn1ncc2c(N3CCOCC3)nc(C(=O)NCCc3cccs3)nc21 | 710
Cc1ccc(C(=O)N2C[C@H](c3nc(-c4cccnc4)no3)[C@@H](C)C2)c(C)c1 | 853
CC(=O)c1ccc2c(c1)[C@@H]1C=CC[C@@H]1[C@H](c1cc3c(cc1Br)OCO3)N2 | 1140
COc1ccc(C2(C(=O)N3[C@H]4CC[C@@H]3c3cnc(C)nc3C4)CCCCC2)cc1 | 812
Cc1ccc(-c2csc(NC(=O)CN3C(=O)COc4ccc(Cl)cc43)n2)cc1 | 1070
CCCNC(=O)N1CCC(c2noc(-c3cccnc3)n2)C1 (stereo not given) | 642
CC(C(=O)NCCCN1CCCCC1)n1c2ccccc2c2cnn(C)c(=O)c21 (stereo not given) | 618
Cc1cc(S(=O)(=O)N2CCC(n3cnnc3C)CC2)ccc1Cl | 739
Cc1cc(C)c2[nH]c3c(c(=O)c2c1)CN(CC(=O)Nc1cc(F)cc(F)c1)CC3 | 673
CCNc1cc(N2CCC(CCC(=O)N3CCCN(c4ncccn4)CC3)CC2)ncn1 | 596
CCCCNC(=O)CCC1CCN(c2cc(NC3CC3)ncn2)CC1 | 629
CC1CCCN(C(=O)c2cc3c(s2)N(C)CCC3)C1 (stereo not given) | 976
COc1ccc(Cl)c2c(=O)c3c([nH]c12)CCN(CC(=O)Nc1ccc2c(c1)OCCO2)C3 | 610
CC(=O)c1ccc2c(c1)[C@H](NC(=O)c1ccc(F)c(Cl)c1)[C@H](O)C(C)(C)O2 | 944
Cn1c(C2CCN(C(=O)Nc3ccc(F)cc3F)CC2)cc(=O)n2nccc12 | 647
OC(COCc1ccc(Cl)cc1)CN1CCCCC1 (stereo not given) | 580

Results, then the compound that gave them:

RP-LC retention time [s] | SMILES
735 | O=C(Nc1c(-c2ccccc2)nc2ccc(Cl)cn12)c1cccs1
774 | CCn1cc(CCNC(=O)Nc2ccccc2Br)c2cccnc21
806 | Cc1cc2c(c(=O)n(-c3ccccc3)c(=O)n2CC(=O)N(C)c2ccccc2)n1C
818 | CC(Oc1ccccc1)C(=O)N1CCc2c(c(C(=O)NCc3ccc4c(c3)OCO4)nn2C)C1 (stereo not given)
999 | CCc1ccc(S(=O)(=O)N2CCC(C(=O)NCc3csc(-c4ccccc4)n3)CC2)cc1
640 | O=C(Cn1nc2n(c1=O)CCCC2)NCc1ccccc1
658 | COc1ccccc1CCC(=O)NC(C)C(=O)Nc1nc2ccccc2[nH]1 (stereo not given)
880 | O=C(CSCC(=O)c1ccccc1)c1ccccc1
1140 | C=C1CC2(OC1=O)c1ccccc1CCc1ccccc12
680 | O=C(NCCCN1CCCC1=O)c1cccc2c1CCN2C(=O)Nc1ccc(F)cc1
829 | O=C(NCc1ccco1)C1CCN(c2nc3ccsc3c(=O)n2Cc2ccccc2)CC1
746 | O=C(Nc1nnc(C2CC(=O)N(c3ccccc3)C2)o1)c1ccc(Cl)cc1 (stereo not given)
1010 | CCN1C(=O)COc2ccc(-c3nc(NC(=O)c4ccccc4C)sc3C)cc21
733 | CS(=O)(=O)NCc1ccc2c(c1)CCN2C(=O)c1ccccc1
771 | COc1ccc(Cl)cc1NC(=O)C1CCCN(C(=O)c2cc(-c3ccccn3)n[nH]2)C1 (stereo not given)
674 | CC(C)N(CCCNC(=O)Cn1cc2c(n1)CCCCC2)Cc1ccccc1
1400 | CCc1ccc(S(=O)(=O)c2cnc(N3CCN(c4cc(C)ccc4C)CC3)nc2N)cc1

RP-LC retention time [s] | SMILES
681 | COc1ccc(C(=O)Nc2cccc(-c3ccc(S(C)(=O)=O)nn3)c2)cc1OC
699 | O=C(C1CCN(S(=O)(=O)c2ccc3nc(-c4ccccc4)[nH]c3c2)CC1)N1CCCC1
916 | CCCn1ccc2sc(C)c(C(=O)N3CCN(c4ccccc4F)CC3)c2c1=O
1150 | O=C(c1cccs1)N1CCc2c([nH]c3ccccc23)C1c1ccc(F)cc1 (stereo not given)
892 | CCn1cc(-c2nc(CC(=O)Nc3ccccc3)cs2)c2cccnc21
1130 | Cc1ccccc1S(=O)(=O)N1CCC(OCCOCc2ccccc2)CC1
867 | CCc1ccc(S(=O)(=O)Nc2ccc(C3(C(=O)NCC4CCCO4)CC3)cc2)cc1 (stereo not given)
845 | COCCNC(=O)C1Cc2ccccc2CN1S(=O)(=O)c1cccc(C)c1 (stereo not given)
934 | O=C(NCc1ccc(F)c(Cl)c1)C1=C2CCCN2c2ccc(F)cc2S1(=O)=O
943 | COc1ccc(OC)c(NC(=O)N2CCc3cn(C)c4cccc(c34)C2)c1
1130 | COc1c(C(=O)NCc2ccccc2C)sc2cccc(F)c12
874 | Cc1ccc2c(c1)N(c1ccc(N(C)C)cc1)C=C(C(=O)N1CCCC1)S2(=O)=O
975 | Cc1nc(-c2csc(S(=O)(=O)N3CCCC(C(=O)Nc4ccccc4Cl)C3)c2)no1 (stereo not given)
766 | Cc1ccc(S(=O)(=O)Nc2ccc3c(c2)CCC(=O)N3)cc1Cl
837 | CCOC(=O)c1c(C)[nH]c(C)c1S(=O)(=O)N1CCC(C(=O)N2CCc3ccccc3C2)CC1
998 | O=C(Cc1cccc(F)c1)N1CCC2(CC1)Nc1ccccc1-n1cccc12
